Measured values from publication PMC5583658, “6,7-dimethoxy-1,2,3,4-tetrahydro-isoquinoline-3-carboxylic acid attenuates heptatocellular carcinoma in rats with NMR-based metabolic perturbations” (Future Science OA, 2017).
“Also recorded” adds a separate entry of the source.

What was measured:
[1] = tested on: diethylnitrosamine-induced hepatocarcinogenic rats; assay: Oxidative stress parameters (SOD, CAT, GSH, PC, MDA) in liver of DEN-induced HCC rats; format: in vivo, albino Wistar rats; conditions: for CAT / MDA / PC / Reduced GSH / SOD: 15 days, mean ± SD, n = 6
Experimental: (§1) All animals were randomly divided into five groups of six animals each. Drugs were suspended in 0.25% CMC, subjected to 28 days’ treatment orally and divided as follows: Group I: 0.25% CMC (2 ml/kg), Group II: DEN (8 mg/kg, intraperitoneally), Group III: DEN+5-fluorouracil (5-FU, 10 mg/kg, intraperitoneally), Group IV: DEN+M1 (50 mg/kg, orally) and Group V: DEN+M1 (100 mg/kg, orally). The procedure to induce HCC was adopted from a paper by Song et al. where it is shown that DEN produces HCC at 8 mg/kg intraperitoneal injection for 28 days to albino Wistar rats. After initial 1 week of adaptive inhabitation, all rats of group II–V were administered with DEN (8 mg/kg, intraperitoneally) for 28 days. After 28 days, 5-FU and M1 were given for 15 days as mentioned above for group III–V. At the end of the experimental period, animals were sacrificed by cervical decapitation and livers were dissected out immediately, rinsed in ice cold saline and stored at -20°C for further studies. The serum was collected, processed and stored for further analysis.
(§2) Liver function biomarkers like aspartate aminotransferase (AST), alanine aminotransferase (ALT) were also measured in serum using commercially available kit from Ebra Diagonesis Pvt Ltd, Germany. The oxidative parameters like superoxide dismutase (SOD), thiobarbituric acid reactive substances (TBARS), protein carbonyl (PC), SOD [14], tissue catalase (CAT) and glutathione (GSH) levels were estimated in liver tissue in the similar experiment. The total protein content of each sample was measured using the Bradford reagent and bovine serum albumin was used as a standard. Conjugated bilirubin and biliverdin in liver were measured as per the following procedure stated earlier in the literature with slight modifications.

[2] = tested on: diethylnitrosamine-induced hepatocarcinogenic rats; assay: Bilirubin and biliverdin in liver of DEN-induced HCC rats; format: in vivo, albino Wistar rats; conditions: for Bilirubin / Biliverdin: 15 days, mean ± SD, n = 6
Experimental: as §1, §2

[3] = tested on: diethylnitrosamine-induced hepatocarcinogenic rats; assay: Histopathological studies of liver (hematoxylin and eosin); format: in vivo, albino Wistar rats; conditions: DEN+M1 50 and 100 mg/kg orally; 40X
Experimental: as §1
Histopathological studies were also performed to find out the morphological changes of liver cells after M1 administration. Liver tissues from each group were assessed for their morphological changes using hematoxylin and eosin staining. The tissues were preserved in 10% formalin overnight. […]

albino Wistar rats = assay: Acute oral toxicity study (OECD Guidelines 423); format: in vivo; conditions: for Bilirubin / Bilverdin / CAT / MDA / PC / Reduced GSH / SOD: liver; for Bilirubin / Bilverdin / CAT / MDA / PC / Reduced GSH / SOD / AST / ALT: normal rats, mean±SD, n=6; for AST / ALT: plasma
Experimental: Acute oral toxicity study of M1 was performed as per revised Organization for Economic Cooperation and Development Guidelines 423. Animal Ethical Committee approved this study (Approval No. SDCOP&VS/AH/CPCSE01/017/R2). M1 was dissolved in 0.25% carboxymethyl cellulose (CMC) and administered orally at the dose of 25, 50, 100, 250 mg/kg body weight to albino Wistar rats for 4 weeks (n = 6) and the animals were observed every day for any toxic manifestations.

Huh-7 cells = conditions: in vitro, MTT assay; M1 isolated from MP seeds; cited from earlier work

Structure (SMILES): COc1cc2c(cc1OC)CC(C(=O)O)NC2 (centres unmarked) [M1, 6,7-dimethoxy-1,2,3,4-tetrahydro-isoquinoline-3-carboxylic acid]
- CAT ([1]; DEN+M1 50 mg/kg orally): 6.51 ± 0.29 nM of H2O2/min/μg of protein
- MDA ([1]; DEN+M1 50 mg/kg orally): 51.60 ± 1.009 nM/μg of protein
- PC ([1]; DEN+M1 50 mg/kg orally): 0.46 ± 0.08 μM/μg of protein
- Reduced GSH ([1]; DEN+M1 50 mg/kg orally): 5.40 ± 0.42 μM/μg of protein
- SOD ([1]; DEN+M1 50 mg/kg orally): 5.92 ± 0.72 U/μg of protein
- CAT ([1]; DEN+M1 100 mg/kg orally): 7.52 ± 0.7 nM of H2O2/min/μg of protein
- MDA ([1]; DEN+M1 100 mg/kg orally): 45.20 ± 1.05 nM/μg of protein
- PC ([1]; DEN+M1 100 mg/kg orally): 0.40 ± 0.02 μM/μg of protein
- Reduced GSH ([1]; DEN+M1 100 mg/kg orally): 6.69 ± 0.30 μM/μg of protein
- SOD ([1]; DEN+M1 100 mg/kg orally): 6.14 ± 0.17 U/μg of protein
- GSH level ([1]; M1 50 mg/kg): ~5.40 µM
- GSH level ([1]; M1 100 mg/kg): ~6.69 µM
- SOD level as compared with normal group ([1]; M1-treated groups (toxic control 20–30%)): 70–80%
- PC formation ([1]; M1-treated rats, text value (toxic control ∼0.96 μM)): ~0.40 µM
- MDA formation ([1]; after M1 therapy, text value (toxic control approximately 98 nM)): ~50 nM
- Bilirubin ([2]; DEN+M1 50 mg/kg orally): 50.59 ± 1.39 ng/μg of protein
- Biliverdin ([2]; DEN+M1 50 mg/kg orally): 21.19 ± 2.42 ng/μg of protein
- Bilirubin ([2]; DEN+M1 100 mg/kg orally): 40.64 ± 3.47 ng/μg of protein
- Biliverdin ([2]; DEN+M1 100 mg/kg orally): 16.95 ± 1.96 ng/μg of protein
- biliverdin concentration ([2]; M1-treated rats, text value (toxic control ∼28 ng)): ~16 ng
- liver histopathology [3]: normal tissue architecture was seen; also recorded: less ruptured and denatured cells (RC and DC) than toxic control
- changes in ALT, AST, bilirubin, biliverdin, SOD, CAT, PC, GSH, TBARS as compared with normal control (albino Wistar rats; M1 dose ranging from 25 to 250 mg/kg orally): no significant changes
- Bilirubin (albino Wistar rats; M1 25 mg/kg orally): 19.24±1.27 ng/µg of protein
- Bilverdin (albino Wistar rats; M1 25 mg/kg orally): 7.15±0.78 ng/µg of protein
- CAT (albino Wistar rats; M1 25 mg/kg orally): 8.22 ± 1.91 nM of H2O2 /min/μg of protein
- MDA (albino Wistar rats; M1 25 mg/kg orally): 9.25 ± 2.87 nM/μg of protein
- PC (albino Wistar rats; M1 25 mg/kg orally): 0.68 ± 0.17 µM/μg of protein
- Reduced GSH (albino Wistar rats; M1 25 mg/kg orally): 4.94 ± 1.17 µM/μg of protein
- SOD (albino Wistar rats; M1 25 mg/kg orally): 14.27 ± 2.88 U/μg of protein
- Bilirubin (albino Wistar rats; M1 50 mg/kg orally): 19.11±3.19 ng/µg of protein
- Bilverdin (albino Wistar rats; M1 50 mg/kg orally): 5.99±1.04 ng/µg of protein
- CAT (albino Wistar rats; M1 50 mg/kg orally): 6.94 ± 2.06 nM of H2O2 /min/μg of protein
- MDA (albino Wistar rats; M1 50 mg/kg orally): 10.11 ± 0.96 nM/μg of protein
- PC (albino Wistar rats; M1 50 mg/kg orally): 0.62 ± 0.05 µM/μg of protein
- Reduced GSH (albino Wistar rats; M1 50 mg/kg orally): 5.42 ± 1.34 µM/μg of protein
- SOD (albino Wistar rats; M1 50 mg/kg orally): 9.78 ± 1.17 U/μg of protein
- Bilirubin (albino Wistar rats; M1 100 mg/kg orally): 18.24±2.55 ng/µg of protein
- Bilverdin (albino Wistar rats; M1 100 mg/kg orally): 7.62±1.45 ng/µg of protein
- CAT (albino Wistar rats; M1 100 mg/kg orally): 8.45 ± 1.59 nM of H2O2 /min/μg of protein
- MDA (albino Wistar rats; M1 100 mg/kg orally): 11.22 ± 1.91 nM/μg of protein
- PC (albino Wistar rats; M1 100 mg/kg orally): 0.49 ± 0.07 µM/μg of protein
- Reduced GSH (albino Wistar rats; M1 100 mg/kg orally): 5.78 ± 1.65 µM/μg of protein
- SOD (albino Wistar rats; M1 100 mg/kg orally): 8.97 ± 1.95 U/μg of protein
- Bilirubin (albino Wistar rats; M1 250 mg/kg orally): 20.13±2.56 ng/µg of protein
- Bilverdin (albino Wistar rats; M1 250 mg/kg orally): 7.91±0.99 ng/µg of protein
- CAT (albino Wistar rats; M1 250 mg/kg orally): 7.38 ± 1.28 nM of H2O2 /min/μg of protein
- MDA (albino Wistar rats; M1 250 mg/kg orally): 12.33 ± 2.17 nM/μg of protein
- PC (albino Wistar rats; M1 250 mg/kg orally): 0.48 ± 0.08 µM/μg of protein
- Reduced GSH (albino Wistar rats; M1 250 mg/kg orally): 6.22 ± 1.07 µM/μg of protein
- SOD (albino Wistar rats; M1 250 mg/kg orally): 9.12 ± 1.65 U/μg of protein
- safe dose (albino Wistar rats; oral, albino Wistar rats, 4 weeks): up to 250 mg/kg body weight
- AST (albino Wistar rats; M1 25 mg/kg orally): 11.33 ± 3.67 U/L
- ALT (albino Wistar rats; M1 50 mg/kg orally): 33.16± 4.22 U/L
- AST (albino Wistar rats; M1 50 mg/kg orally): 11.90 ± 1.69 U/L
- ALT (albino Wistar rats; M1 100 mg/kg orally): 33.24 ± 1.57 U/L
- AST (albino Wistar rats; M1 100 mg/kg orally): 14.33 ± 1.28 U/L
- ALT (albino Wistar rats; M1 250 mg/kg orally): 35.11 ± 2.84 U/L
- AST (albino Wistar rats; M1 250 mg/kg orally): 14.92 ± 3.52 U/L
- antiproliferative action on Huh-7 cells (Huh-7 cells): good antiproliferative action
